We go through 11 substances from patent US12344643B2, “Compositions and methods for inhibition of FOXP3” (The University of Chicago, priority 2016, dated 2025).

The target in experiment [1] is T1, recombinant LZCC protein (dimerized FOXP3) (Mus musculus, UniProt Q99JB6).
T1 construct: the LZCC portion of FOXP3 (FOXP3 S189-K276); made in house
T1 sequence (Q99JB6 189-276): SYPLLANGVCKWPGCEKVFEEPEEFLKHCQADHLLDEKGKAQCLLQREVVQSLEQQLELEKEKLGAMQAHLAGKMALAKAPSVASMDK
The experiment can be described thus: Chemical crosslinking (BS3 or DSS) of recombinant LZCC with SAH-FOXP3 peptides. The format is biochemical. Particulars: 2 hours room temperature, 1 mM BS3 or DSS. As to the method: FIG. 8A-B. Chemical Crosslinking. SAH-FOXP3 peptides incubated with recombinant LZCC protein for 2 hours at room temperature in 1×PBS. 1 mM of the chemical crosslinker BS3 or DSS was added to each tube for 30 mins at room temperature. Samples were denatured and then separated by electrophoresis on a NuPage SDS 10/a Bis-Tris gel following the manufacturer's protocol (Invitrogen). Protein was imaged after staining the gel with coomassie on the Odyssey Imager. […] In some cases, SAH peptide crosslinks with monomeric FOXP3 alone

The test system of the next experiment is DNA probe. Kind of experiment: EMSA control, peptide alone with DNA probe (non-specific binding). Conditions: 50 μM peptide. The method, then:
FIG. 9A-C. Electrophoretic mobility shift assays (EMSA). (A) SAHs block FOXP3 binding to cognate DNA; a comparison of stapled and unstapled peptides. EMSA with FOXP3ΔN incubated with increasing concentrations of different SAH-FOXP3 are shown. Labeled probe containing consensus sequence (A′GT25) for FOXP3 was incubated at room temperature for 15 mins with recombinant FOXP3ΔN and increasing concentrations of SAH peptide [3 μM to 25 μM]. The last lane in each set is 25 μM of peptide alone with DNA probe. […] IRDye700 labeled probe containing consensus sequence for NFAT was incubated at room temperature for 15 mins with 100 pmole recombinant NFAT-DBD and peptide or DMSO using the Odyssey Infrared EMSA kit per manufacturer's protocol (Li-Cor). Reactions were then separated by electrophoresis on a 10% TBE gel and imaged using an Odyssey Imager (Li-Cor).
To exclude non-specific binding to the negatively charged DNA probe, a liability of using charged peptides in EMSAs, SAH-FOXP3DDs were incubated with each probe at up to twice the highest concentration used. […] Next, SAH-FOXP3DDs were incubated with recombinant NFAT (NFAT DBDW400-W680) and the Il-2 reporter oligonucleotide ARRE2 element as a further test of specificity. SAH-FOXP3DDs were unable to inhibit NFAT:DNA binding, further validating on-target specificity of the peptides.
(In general: In EMSA bound probe runs differently from free probe, usually more slowly.)

The test system of a further experiment is FOXP3-DNA binding. Kind of experiment: EMSA with FOXP3 reticulocyte lysate (IVTT) and IRDye700 DNA probe, unstapled peptides. The format is biochemical. Conditions: peptides 50-200 μM, A′A1A2 probe. The method, then: FIG. 5A-C. Unstapled FOXP3 peptides are able to alter FOXP3-DNA binding at high concentrations. Preparation of FOXP3 proteins through In Vitro Transcription and Translation (IVTT) reticulocyte lysate: T7 DNA vectors (1 μg/25 μL) were incubated at 30° C. for 1.5 hr in reticulocyte lysate with T7 polymerase, amino acids and RNAsin per the manufacturer's protocol (TnT Coupled Reticulocyte Lysate System, Promega). IRDye700 labeled probe containing consensus sequence (A′A1A2; a DNA sequence previously published to bind FOXP3) for FOXP3 was incubated at room temperature for 15 mins with 2 μL FOXP3 reticulocyte lysate, in the presence of peptides (50-200 μM) using the Odyssey Infrared EMSA kit per manufacturer's protocol (Li-Cor). Reactions were then separated by electrophoresis on a 10% TBE gel and imaged using an Odyssey Imager (Li-Cor).

The next experiment deals with FOXP3:NFAT1. Kind of experiment: IL-2 promoter ARRE2 luciferase reporter, FOXP3 repression of NFAT1:AP1 transcription. Type of experiment: cell-based, human. Particulars: HEK cells. As to the method:
FIG. 2A-E. Design, biochemical characterization, and functional testing of SAH-FOXP3NFATs. (A) Design strategy for SAHs targeting the FOXP3:NFAT1 dimerization interface. (B) CD showing that i(i+4) and i(i+7) stapled SAH-FOXP3NFATs and their point mutant controls are helical in solution. […] (C&D) Dose dependent inhibition of FOXP3-mediated NFAT repression with 2.5 ng (D) and 10 ng (E) FOXP3 DNA. Point mutant controls have no effect thus confirming specificity of action.
Experiments were conducted during development of embodiments herein to design stabilized α-helices of the FOXP3:NFAT1 interface (SAH-FOXP3NFAT). Using a similar approach as above, stapled peptides based on a FOXP3 α-helix, which is responsible for NFAT1 binding (FIG. 2A), were designed. Non-natural amino acids were inserted in either the i,i+4 (SAHFOXP3NFAT(i,i+4)) or i,i+7(SAHFOXP3NFAT(i,i+7)) positions. Hydrocarbon stapling of the FOXP3NFAT peptides and point mutants similarly stabilizes their helicity (FIG. 2B). The peptides were tested for inhibition of FOXP3:NFAT1 binding. Co-expression of increasing amounts of FOXP3 DNA with constitutively active NFAT1 dose dependently represses NFAT1: AP1 transcriptional activity at an IL-2 promoter ARRE2 luciferase reporter element in transfected human embryonic kidney (HEK) cells (FIG. 2C). […] Confirming specificity of action, neither point mutant control SAH had any effect (FIG. 2E). […] Possibilities include differences in cellular penetrance, binding efficiency, or intracellular trafficking between the two SAHs.
For orientation: A reporter such as luciferase makes a cellular process visible.

The subject of experiment [2] is Tregs. The experiment can be described thus: Quantitative PCR of mRNA in treated Tregs. The format is cell-based, mouse (C57BL/6 FOXP3IRES-GFP). Particulars: naïve Tregs with IL-2 and CD3/CD28 microbeads. As to the method: (§1) FIG. 12A-B. SAH-FOXP3DD peptides are able to alter cellular expression (protein and mRNA) of FOXP3 target genes. Conventional T cells (CD4+ CD25−) and regulatory T cells (CD25+ GFP+) were isolated from CD4+ cells enriched from spleen and draining lymph nodes of FOXP3-IRES-GFP. Tregs were treated at 1000 cells per μL with peptides in OptiMem for 2 hours before being quenched with completed advanced DMEM and then stimulated with CD3/CD28 beads. Gene expression was determined using qRT-PCR 4 hours after stimulation. Membrane (live cell) or internal (fixed cell) expression of proteins was determined using flow cytometry 16 hrs after stimulation.
(§2) Tregs and Tcons were stimulated from C57BL/6 FOXP3IRES-GFP with IL-2 and CD3/CD28 microbeads for seven days and treated them with a dose titration of SAH-FOXP3DD10, or unstapled control, and measured membrane expression of CD127 (IL7Ra). Tregs and Tcons normally downregulate CD127 mRNA expression following seven days of stimulation.

Experiment [3] relates to Tregs. Kind of experiment: Flow cytometry of protein expression in treated Tregs. Conditions: dose titration. The format is cell-based, mouse (C57BL/6 FOXP3IRES-GFP). The method, then:
as §1, §2
Background: A flow cytometer gives signals particle by particle.

The test system of experiment [4] is regulatory T cells (Tregs). The experiment can be described thus: In vitro Treg suppression assay (Tcon proliferation, flow cytometry). Type of experiment: cell-based, mouse (C57BL/6 FOXP3IRES-GFP).
Experiment [5] has as its target T2, recombinant FOXP3 leucine zipper coiled-coiled (LZCC) domain (Mus musculus, UniProt Q99JB6).
T2 construct: the LZCC portion of FOXP3 (FOXP3 S189-K276); made in house
T2 sequence (Q99JB6 189-276): T1 sequence (Q99JB6 189-276)
Kind of experiment: Fluorescence polarization assay, FITC-peptide binding to LZCC. Conditions: 50 nM FITC-peptide, 1×PBS pH 8. The method, then:
FIG. 7A-D. Fluorescence polarization assay to determine SAH-FOXP3 binding to recombinant FOXP3 leucine zipper coiled-coiled (LZCC) domain. (A) Serially diluted recombinant LZCC was incubated with 50 nM FITC-peptide in 1×PBS pH 8 for 5-10 mins and then fluorescent polarization was measured using a SpectraMax spectrometer. […] (B—C) Serially diluted recombinant LZCC (A) or FOXP3 ΔN (B) was incubated with 50 nM FITC-peptide in 1×PBS pH 8 for 5-10 mins followed by fluorescent polarization measurement using a SpectraMax spectrometer. (D) Shift of composite binding curves indicate increased affinity for the leucine zipper coiled-coiled (LZCC) domain and FOXP3ΔN.
A library of hydrocarbon stapled peptides were synthesized representing these templates (SAH-FOXP3DDs) that incorporated three different hydrocarbon staple positions along the solvent-exposed face so as to avoid disruption of critical contact points between ‘a’ and ‘d’ residues of the coiled-coil. Non-natural amino acids were inserted at positions i,i+7 so that the hydrocarbon staples face away from the dimerization interface (FIG. 1A). […] Both native and stapled FOXP3DD peptides were α-helical in solution at a wide range of temperatures (20-50° C.) (FIG. 1B). To achieve solubility of the unstapled constructs for CD evaluation, 20% acetonitrile:water solution was used. […]

Ends that are not written are not given here.

As for “F8KHCQADXLLDEKGRAQCLLQREMVQSLEQQLVLEKEKL [SAH7, Ac-/-Am; hFOXP3 (214-253); staple (1215, H222)Z]”, in experiment [1], the “amount of dimerized FOXP3 protein after crosslinking” value is on record as “modest decrease”.

For the substance “HLLDEKGRAQCLLQREMVQSLE8QLVLEKXKLSAMQAHLAG [SAH3, Ac-/-Am; hFOXP3 (222-262); staple (Q244, E251)C]”, the “binding of peptide to DNA probe” value with DNA probe is “minimal binding”.

With “KGRAQCLLQREMVQSLE8QLVLEKXKLSAMQAH [SAH-FOXP3DD4, Ac-/-Am; hFOXP3 (227-259); staple (Q244, E251)C]”, the “binding of peptide to DNA probe” value with DNA probe is listed as “minimal binding”.

Take “LLDEKGRAQCL8QREMVQXLEQQLVLEKEK [SAH9, Ac-/-Am; hFOXP3 (223-252); staple (L234, S241)B]”: the “amount of dimerized FOXP3 protein after crosslinking” value in experiment [1] is “modest decrease”.

For the substance “LLDEKGRAQCLLQREMVQSLEQQLVLEKEK (LLDEKGRAQCLLQREMVQSLEQQLVLEKEK-NH2) [223-252, free N-term/-Am; hFOXP3 (223-252); unstapled; B4 has the same range]”, the “dissociation of FOXP3 from DNA (EMSA)” value in the experiment with FOXP3-DNA binding is reported as “dissociate FOXP3 from DNA”.

For the substance “QRTXNEIXHWFTRNFAFF [SAH-FOXP3NFAT(i,i+4), β-Ala/Ac; i,i+4 stapled FOXP3/NFAT peptide]”, the “inhibition of FOXP3-mediated repression of NFAT1:AP1 luciferase activity” value was “inhibited this FOXP3-mediated repression” in the experiment with FOXP3:NFAT1 (2.5 ng FOXP3 DNA (low dose)); “fully inhibited” in the experiment with FOXP3:NFAT1 (2.5 ng FOXP3 DNA (low dose), listed as FOXP3NFAT(i,i+4)); “inhibited this FOXP3-mediated repression” in the experiment on FOXP3:NFAT1 (10 ng FOXP3 DNA (excess)); “less able to inhibit” in the experiment with FOXP3:NFAT1 (10 ng FOXP3 DNA (excess), listed as FOXP3NFAT(i,i+4)).

“QRTXNEIYHWXTRNFAFF [SAH-FOXP3NFAT(i,i+7), β-Ala/Ac; i,i+7 stapled FOXP3/NFAT peptide]”: the “inhibition of FOXP3-mediated repression of NFAT1:AP1 luciferase activity” value with FOXP3:NFAT1 (2.5 ng FOXP3 DNA (low dose)) is listed as “inhibited this FOXP3-mediated repression”; in the experiment on FOXP3:NFAT1 (2.5 ng FOXP3 DNA (low dose), listed as FOXP3NFAT(I,i+7)) it was “dose-responsively inhibited”; in the experiment on FOXP3:NFAT1 (10 ng FOXP3 DNA (excess)) it was “inhibited this FOXP3-mediated repression”; in the experiment on FOXP3:NFAT1 (10 ng FOXP3 DNA (excess), listed as FOXP3NFAT(I,i+7)), “dose-responsively inhibited”.

Turning to “RAQCLLQREMVQSLE8QLVLEKXKLSAMQAH [SAH-FOXP3DD10, Ac-/-Am; hFOXP3 (229-259); staple (Q244, E251)C]”, in the experiment on Tregs [2], the “FOXP3 mRNA expression” value is “correlative increase” and the “IL-2 mRNA expression” value is recorded as “correlative increase”. The “binding of peptide to DNA probe” value with DNA probe is “minimal binding”. In the experiment with Tregs [3] (Tregs stimulated seven days), the “expression of CD44” value was “dose dependent decrease” and the “expression of CD69” value is given as “dose dependent decrease”. The “membrane expression of CD127 (IL7Ra)” value in the experiment on Tregs [3] (Tregs stimulated with IL-2 and CD3/CD28 microbeads for seven days) is “dose dependent increase”. Further, the “degree of Treg inhibition” value in experiment [4] (in vitro expanded Tregs) is “lower, but still present”. The “ability of treated Tregs to inhibit Tcon proliferation” value in experiment [4] (naïve Tregs pretreated for 2 hours) is on record as “unable to inhibit the proliferation”.

“RAQCLLQREMVQSLEQQLVLEKEKLSAMQAH (Ac-RAQCLLQREMVQSLEQQLVLEKEKLSAMQAH-NH2) [229-259, Ac-/-Am; hFOXP3 (229-259); unstapled]”: the “dissociation of FOXP3 from DNA (EMSA)” value in the experiment with FOXP3-DNA binding is reported as “dissociate FOXP3 from DNA”.

On to “SGSGSRAQCLLQREMVQSLEQQLVLEKEK (Ac-SGSGSRAQCLLQREMVQSLEQQLVLEKEK-NH2) [B2V3, Ac-/-Am; SGSGS hFOXP3 (229-252); unstapled native peptide]”, for which the “binding to recombinant LZCC, in words” value in experiment [5] is “much lower affinity”.

In the case of “SGSRAQCLLQREMVQSLEQQLVLEKEK (Ac-SGSRAQCLLQREMVQSLEQQLVLEKEK-NH2) [B2V2, Ac-/-Am; SGS hFOXP3 (229-252); unstapled native peptide]”, the “binding to recombinant LZCC, in words” value in experiment [5] was “much lower affinity”.
